Patent US7241439B2, “Biopesticide compositions” (Faculte Universitaire des Sciences Agronomiques de Gembloux, priority 2001, dated 2007)
Structures can show the parent of a compound that is named as a salt.

Legend:
B. cinerea = test: Protection of wounded apples against postharvest rot (lesion diameter); format: in vivo
Description: (§1) Apples (Malus domestics Borkh cv. Golden) were harvested from commercial orchards maintained with standard cultural practices in Belgium and placed in regular long term storage. Commercial class I fruits were used. They were bought from wholesale dealers and stored in a cold room at 4±1° C. for maximum 15 days before use.
(§2) B. cinerea (grey mould) and Penicillium expansum (blue mould) strains were initially isolated from strawberries and apples respectively in Gembloux.
(§3) Conidia from the two pathogenic strains were put in suspension in a glycerol solution (25%) and stored at −70° C. Another storage method consisted of growing the pathogen on Potato Dextrose Agar (PDA) in tubes, covering it then by paraffin oil and keeping the tubes at 25° C. Starting from this stored material, the two fungal strains were transferred to oat medium at 25° C. Conidial suspensions were prepared in an aqueous sterile solution of Tween 20 (0.05%), and were adjusted to the required concentration (10^6 spores/ml) using a Bärker cell.
(§4) Before use, the micro-organisms were subcultured three times successively at 24 hours intervals on PDA (Potato Dextrose Agar). At the third generation, yeast cells were removed from the culture medium and suspended in isotonic water (NaCl 0.85%). Suspension concentrations were adjusted to the required values after the establishment of a regression line in relation with the micro-organisms suspension absorbance (at 595 nm) and the number of colony forming units (cfu) of the same suspension spread onto PDA.
(§5) Fruits were disinfected by dipping for 2 minutes in sodium hypochlorite (10% of the commercial product). They were rinsed in sterile water and dried out under laminar flux before being wounded by removing 6 mm diameter and 3 mm deep blocks of tissue from two sites 4-5 cm apart along the equatorial line of the fruits.
(§6) The wounds were treated by application of 50 μl of compositions of the state of the art or compositions of the invention.
(§7) After a 24 h at 20° C. incubation period in plastic boxes, the wounds have been inoculated with 50 μl of the respective conidial suspensions of the pathogens. The fruits were incubated during one to three weeks at 25° C.
The diameters of the lesions developing around the wounds were measured after 7, 10, 14 and up to 20 days after treatment. Four fruits (8 wounds) were used per treatment.
(§8) The percentage of protection provided by the different treatments is calculated from the diameter of lesion caused by the fruit rot agent after the incubation time using the following formula:
(§9) [formula] where Y is the percentage of protection; DT is the mean diameter of lesions for the untreated control and Dx is the mean diameter of lesions for the treated fruits.
(§10) Vegetal material, pathogens, antagonistic micro-organisms and treatment method were as in example 1. The wounds were treated by application of 50 pi of compositions of the state of the art or compositions of the invention. The effect of the compositions against postharvest apple rots caused by B. cinerea has been evaluated under controlled conditions.

P. expansum = test: as above; format: in vivo, Penicillium expansum
Description: as §1, §2, §3, §4, §5, §6, §7
[…] Four fruits (8 wounds) were used per treatment.
as §8, §9, §10

P. digitatum = test: Protection of wounded oranges against green mould; format: in vivo, Penicillium digitatum strain CBS31948; details: Table 7, GA 0.01% w/v
Description: Oranges (Citrus sinensis (L.) Ohl. cv. Valencia) were bought from wholesale dealers and stored in a cold room at 4±1° C. for maximum 15 days before use.
Penicillium digitatum strain CBS31948 (green mould of oranges) was obtained from the CentraalBureau Schimmelcultures, Netherlands collection and initially isolated from Citrus fruits. Conidia from the pathogenic strain were put in suspension in a glycerol solution (25%) and stored at −70° C. Starting from this stored material, the fungal strain was transferred to oat medium at 25° C. Conidial suspensions were prepared in an aqueous sterile solution of Tween 20 (0.05%). Before use, suspensions have been adjusted to the required concentration (10^5 spores/ml) using a Barker cell.
The antagonistic yeast strain P. anomala “strain K” was obtained as in example 1. C. oleophila strain I-182 commercialised under the name Aspire™ was obtained from Ecogen Inc. Both microorganisms were subcultured as in example 1.
Fruits were disinfected and wounded as in example 1. […] The percentage of protection is calculated as in example 1.
Vegetal material, pathogens, antagonistic agents and treatment method were as in example 3. […] The effect of the compositions against postharvest rots caused by P. digitatum has been evaluated under controlled conditions.

[1] = Table 12, M (mannans) 0.02% w/v

Compound: O=C[C@H](O)[C@@H](O)[C@H](O)[C@H](O)C(=O)O [GU, glucuronic acid (sodium salt)]
- % protection against B. cinerea after 7 days (B. cinerea; Table 1, GU 0.001% w/v): 75%
- % protection against B. cinerea after 10 days (B. cinerea; Table 1, GU 0.001% w/v): 46%
- % protection against B. cinerea after 14 days (B. cinerea; Table 1, GU 0.001% w/v): 46%
- % protection against B. cinerea after 20 days (B. cinerea; Table 1, GU 0.001% w/v): 21%
- % protection against B. cinerea after 7 days (B. cinerea; Table 2, GU 0.001% w/v): 75%
- % protection against B. cinerea after 10 days (B. cinerea; Table 2, GU 0.001% w/v): 46%
- % protection against B. cinerea after 14 days (B. cinerea; Table 2, GU 0.001% w/v): 46%
- % protection against B. cinerea after 20 days (B. cinerea; Table 2, GU 0.001% w/v): 21%

Compound: mannans
- % protection against B. cinerea after 7 days (B. cinerea; [1]): 100%
- % protection against B. cinerea after 10 days (B. cinerea; [1]): 78%
- % protection against B. cinerea after 14 days (B. cinerea; [1]): 55%
- % protection against B. cinerea after 20 days (B. cinerea; [1]): 16%
- % protection against B. cinerea after 7 days (B. cinerea; Table 12, M (mannans) 0.2% w/v): 100%
- % protection against B. cinerea after 10 days (B. cinerea; Table 12, M (mannans) 0.2% w/v): 93%
- % protection against B. cinerea after 14 days (B. cinerea; Table 12, M (mannans) 0.2% w/v): 68%
- % protection against B. cinerea after 20 days (B. cinerea; Table 12, M (mannans) 0.2% w/v): 26%
- % protection against B. cinerea after 7 days (B. cinerea; Table 13, M 0.02% w/v): 100%
- % protection against B. cinerea after 10 days (B. cinerea; Table 13, M 0.02% w/v): 78%
- % protection against B. cinerea after 14 days (B. cinerea; Table 13, M 0.02% w/v): 55%
- % protection against B. cinerea after 20 days (B. cinerea; Table 13, M 0.02% w/v): 16%
- % protection against B. cinerea after 7 days (B. cinerea; Table 13, M 0.2% w/v): 100%
- % protection against B. cinerea after 10 days (B. cinerea; Table 13, M 0.2% w/v): 93%
- % protection against B. cinerea after 14 days (B. cinerea; Table 13, M 0.2% w/v): 68%
- % protection against B. cinerea after 20 days (B. cinerea; Table 13, M 0.2% w/v): 28%

Compound: polygalacturonic acid [PGA, reference compound]
- % protection against P. expansum after 6 days (P. expansum; Table 4, PGA 0.001% w/v): 19%
- % protection against P. expansum after 8 days (P. expansum; Table 4, PGA 0.001% w/v): 12%
- % protection against P. expansum after 10 days (P. expansum; Table 4, PGA 0.001% w/v): 10%

Compound: O.O=C[C@H](O)[C@@H](O)[C@@H](O)[C@H](O)C(=O)O [GA, galacturonic acid (monohydrate)]
- % protection against P. digitatum after 7 days (P. digitatum): 58%
- % protection against P. digitatum after 10 days (P. digitatum): 36%
- % protection against P. expansum After 7 days (P. expansum; Table 3, GA 0.01% w/v): 18%
- % protection against P. expansum after 6 days (P. expansum; Table 4, GA 0.001% w/v): 15%
- % protection against P. expansum after 8 days (P. expansum; Table 4, GA 0.001% w/v): 9%
- % protection against P. expansum after 10 days (P. expansum; Table 4, GA 0.001% w/v): 7%
- % protection against B. cinerea after 7 days (B. cinerea; Table 1, GA 0.01% w/v): 49%
- % protection against B. cinerea after 10 days (B. cinerea; Table 1, GA 0.01% w/v): 42%
- % protection against B. cinerea after 14 days (B. cinerea; Table 1, GA 0.01% w/v): 22%
- % protection against B. cinerea after 20 days (B. cinerea; Table 1, GA 0.01% w/v): 2%
- % protection against B. cinerea after 7 days (B. cinerea; Table 2, GA 0.001% w/v): 87%
- % protection against B. cinerea after 10 days (B. cinerea; Table 2, GA 0.001% w/v): 47%
- % protection against B. cinerea after 14 days (B. cinerea; Table 2, GA 0.001% w/v): 33%
- % protection against B. cinerea after 20 days (B. cinerea; Table 2, GA 0.001% w/v): 0%
- % protection against B. cinerea after 7 days (B. cinerea; Table 3, GA 0.01% w/v): 12%
- % protection against B. cinerea after 7 days (B. cinerea; Table 13, GA 0.001% w/v): 87%
- % protection against B. cinerea after 10 days (B. cinerea; Table 13, GA 0.001% w/v): 47%
- % protection against B. cinerea after 14 days (B. cinerea; Table 13, GA 0.001% w/v): 33%
- % protection against B. cinerea after 20 days (B. cinerea; Table 13, GA 0.001% w/v): 0%
